{"source": "paper PMC8684776", "about": "“Discovery and characterization of potent And‐1 inhibitors for cancer treatment” (Clinical and Translational Medicine, 2021)", "key": {"[1]": {"assay": "Toxicity evaluation of treated mice (body weight, H&E staining of organs)", "experimental": "To this end, we subcutaneously implanted IGROV1 or MCF7 cells into nude mice to form ovarian or breast tumors, respectively. The mice with these tumors were then treated with vehicle, 20 mg/kg or 40 mg/kg of CH3 via intraperitoneal injection.\nTo assess the efficacy of the combination of And‐1 inhibitors and cisplatin in vivo, we treated cisplatin resistant IGROV1 CR xenografts with vehicle, And‐1 inhibitors, cisplatin or a combination of cisplatin and And‐1 inhibitor via intraperitoneal injection.\nweek old female BALB/c athymic nude mice (CByJ.Cg-Foxn1nu/J, weighting 20-25g, from the Jackson\nLaboratory) were inoculated subcutaneously by injecting the OC cells, cisplatin resistant OC cells or\nbreast cancer cells suspended in 100 µl ice-cold Matrigel/PBS (1:1, V:V; 5 x 10^6/mouse) into the dorsal\nflank of each mouse. When the average tumor volume reached 100-150 mm3, the mice were randomized\ninto subsequent experiment groups. For tumors treated with CH3 only, CH3 was given at 0 mg/kg, 20\nmg/kg and 40 mg/kg twice a week for three weeks.\nwere then given intraperitoneally at 8 mg/kg, 20 mg/kg and 2 mg/kg respectively twice a week for three\nDuring the drug treatment, the tumor volume and body weight were measured."}, "[2]": {"system": "60 human tumour cell lines", "assay": "NCI-60 one-dose screen, whole panel statistics", "type": "cell-based", "settings": "mean growth percentage against all 60 tumor cell lines, 10 μM", "procedure": "The NCI‐60 cell line panel includes 60 human tumour cell lines. The effect of CH3 on tumour cell growth was tested at National Cancer Institute, Developmental Therapeutics Program (NCI‐DTP) by following the protocol as described previously.[47]\nWe next evaluate the inhibitory efficacy of CH3 against a panel of 60 human cancer cell lines at the NCI‐DTP. […] To further compare the efficacy of CH3 in the inhibition of NCI 60 cells, we examined the inhibitory effects of CH3 on 60 cells by using five doses of CH3.\nFIGURE 5 The effect of CH3 treatment in the NCI‐60 human tumor cell line panel. (A) Mean graph display of NCI‐60 cell line screening data for CH3. The presented result is a one‐dose mean graph display of NCI‐60 cell line screening data for CH3 at 10 μM. The number reported for the one‐dose assay is growth relative to the no‐drug control. Bars deflecting to the right of the mean indicate relatively high sensitivity, and bars deflecting to the left of the mean indicate relatively low sensitivity to CH3. Experiments were performed at the NCI‐DTP. (B) Dose–response curves of CH3 for breast and ovarian cell lines from NCI‐60 cell line panel. All cells were tested at the NCI‐DTP in the presence of CH3 at five concentrations (0.01 μM, 0.1 μM, 1 μM, 10 μM and 100 μM). […]"}, "And‐1": {"target": "T1, And‐1 (Homo sapiens, UniProt O75717)", "T1 construct": "expressed in transfected cells", "T1 sequence (O75717 1-1129)": "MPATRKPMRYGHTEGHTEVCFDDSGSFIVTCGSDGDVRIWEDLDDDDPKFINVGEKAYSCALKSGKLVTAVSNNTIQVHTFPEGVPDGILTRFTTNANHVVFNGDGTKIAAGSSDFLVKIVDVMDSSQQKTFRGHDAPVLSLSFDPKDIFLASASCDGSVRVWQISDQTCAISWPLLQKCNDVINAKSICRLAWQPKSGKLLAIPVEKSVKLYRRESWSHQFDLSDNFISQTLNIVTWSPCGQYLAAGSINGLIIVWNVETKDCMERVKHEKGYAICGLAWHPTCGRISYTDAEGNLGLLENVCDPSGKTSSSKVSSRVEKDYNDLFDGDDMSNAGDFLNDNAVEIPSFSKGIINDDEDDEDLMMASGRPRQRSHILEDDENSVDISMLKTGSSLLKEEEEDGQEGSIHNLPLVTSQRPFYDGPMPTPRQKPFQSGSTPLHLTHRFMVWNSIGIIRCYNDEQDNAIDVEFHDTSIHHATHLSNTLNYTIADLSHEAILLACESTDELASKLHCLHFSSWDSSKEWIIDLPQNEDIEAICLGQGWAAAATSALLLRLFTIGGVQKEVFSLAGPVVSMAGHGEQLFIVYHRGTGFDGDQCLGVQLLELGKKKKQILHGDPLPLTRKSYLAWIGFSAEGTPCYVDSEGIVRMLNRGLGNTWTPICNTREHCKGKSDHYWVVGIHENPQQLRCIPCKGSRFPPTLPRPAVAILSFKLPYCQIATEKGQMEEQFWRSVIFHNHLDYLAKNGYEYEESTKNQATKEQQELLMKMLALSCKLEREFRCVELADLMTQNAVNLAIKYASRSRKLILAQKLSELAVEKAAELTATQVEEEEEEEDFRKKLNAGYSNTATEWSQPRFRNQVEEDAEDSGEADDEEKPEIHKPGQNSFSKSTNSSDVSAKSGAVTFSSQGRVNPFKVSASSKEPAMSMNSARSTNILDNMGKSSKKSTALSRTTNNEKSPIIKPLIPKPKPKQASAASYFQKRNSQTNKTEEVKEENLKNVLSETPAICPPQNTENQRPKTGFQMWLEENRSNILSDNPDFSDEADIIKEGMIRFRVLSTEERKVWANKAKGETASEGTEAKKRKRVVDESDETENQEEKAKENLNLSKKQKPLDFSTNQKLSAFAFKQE", "assay": "Cellular thermal shift assay", "type": "binding", "settings": "IGROV1 cells, higher temperature, compared to DMSO"}, "IGROV1 cells [3]": {"system": "IGROV1 cells", "assay": "Immunofluorescence of CtIP recruitment to micro-irradiation induced DSB sites", "type": "cell-based, human", "settings": "1 µM", "procedure": "(§1) Supplementary Figure S1. Identification of novel And-1 inhibitors. […]\nsiAnd-1. S: S phase. (D) Immunofluorescence assay to detect CtIP and γH2AX foci formation after CH3 […]\nIGROV1 cells treated with DMSO, 1 […]\nto immunostain γH2AX and CtIP. For each experiment, 50 cells were counted and the percentage of cells with co-localization of γH2AX and CtIP foci was determined. Data represent means ± SEM from three independent experiments. (E) HR reporter assay to detect HR repair efficiency in cells treated with CH3. […]"}, "IGROV1 cells [4]": {"system": "IGROV1 cells", "assay": "Flow cytometry cell cycle analysis (propidium iodide)", "type": "cell-based, human", "settings": "1 µM, FACS", "from_the_text": "And‐1 is involved in DNA replication in the S‐phase and is required for the S‐phase progression.[15] We assumed that And‐1 inhibitors should be able to inhibit DNA replication by targeting And‐1.\nas §1\nMolecular weight of each compound was indicated. (C) Flow cytometry"}, "IGROV1 cells [5]": {"system": "IGROV1 cells", "assay": "HR reporter assay", "type": "cell-based, human", "settings": "CH3 2 µM or 4 µM", "procedure": "as §1\n(E) HR reporter assay to detect HR repair efficiency in cells treated with CH3.\nIGROV1 cells treated with DMSO, 2 µM or 4 µM of CH3 were subjected to HR reporter assay and the\npercentage of GFP-positive cells was determined by flow cytometry 48 h after I-SceI plasmid transfection.\nHR efficiency were normalized to those obtained from cells treated with DMSO. Data represent means ±\nSEM from three independent experiments. (F) HR reporter assay to detect HR repair efficiency in cells\ntreated with BZA using approaches as in E."}}, "data": [{"smiles": "OB1OCc2cc(/C=C/c3ccc(Cl)c(Cl)c3)ccc21", "note": "[CH3, (E)‐5‐(3,4‐dichlorostyryl)benzo[c][1,2]oxaborol‐1(3H)‐ol]", "values": [{"measurement": "toxicity of combination with cisplatin: body weight and organs (heart, liver, kidney, lung)", "setting": "[1]; IGROV1 CR xenograft mice, cisplatin 8 mg/kg + CH3 20 mg/kg or BZA 2 mg/kg", "value": "no obvious systemic toxicity or side effect"}, {"measurement": "toxicity: body weight; H&E staining of heart, liver, kidney and lung", "setting": "[1]; xenograft mice, CH3 20 or 40 mg/kg intraperitoneal", "value": "did not observe systemic toxicity or obvious side effects"}, {"measurement": "Growth Percent (Mean)", "setting": "[2]", "value": 1.84, "unit": "%"}, {"measurement": "thermal stability of And‐1 protein", "setting": "And‐1", "value": "stabilized"}, {"measurement": "recruitment of CtIP to DSB sites induced by micro‐irradiation", "setting": "IGROV1 cells [3]", "value": "significantly decreased"}, {"measurement": "percentage of cells in the S‐phase", "setting": "IGROV1 cells [4]", "value": "reduced the percentage of cells in the S‐phase"}, {"measurement": "HR efficiency", "setting": "IGROV1 cells [5]", "value": "profoundly reduced HR efficiency"}]}]}
